Assays:
Type in all cases: in vivo
[1] = test system: Echinochloa crus-galli (ECHCG); experiment: Pre-emergence Test (glasshouse, percentage damage to the plant); details: 1000 g/ha unless otherwise stated, five-point scale
Zea mays (ZEAMX) [2] = experiment: as above; details: 1000 g/ha unless otherwise stated, five-point scale
[3] = test system: Amaranthus retoflexus (AMARE); experiment: as above; details: 1000 g/ha unless otherwise stated, five-point scale
[4] = test system: Abutilon theophrasti (ABUTH); experiment: as above; details: 1000 g/ha unless otherwise stated, five-point scale
Setaria faberi (SETFA) [5] = experiment: as above; details: 1000 g/ha unless otherwise stated, five-point scale
[6] = test system: Abutilon theophrasti (ABUTH); experiment: Post-emergence Test (glasshouse, percentage damage to the plant); details: post-emergence spray, 1000 g/ha unless otherwise stated, evaluated after 13 days
Procedure, shortened: (§1)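 Seeds are sown in standard soil under controlled glasshouse conditions. The pots are then sprayed at 1000 g/ha, unless otherwise stated, with compound in acetone/water (50:50) containing 0.5% Tween 20. After 13 days further growth, percentage plant damage is scored from 1 (0-20%) to 5 (81-100%).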

[7] = test system: Amaranthus retoflexus (AMARE); experiment: as above; details: post-emergence spray, 1000 g/ha unless otherwise stated, evaluated after 13 days
Procedure, shortened: as §1

[8] = test system: Ipomoea hederacea (IPOHE); experiment: as above; details: post-emergence spray, 1000 g/ha unless otherwise stated, evaluated after 13 days
Procedure, shortened: (§2)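 Sown pots; spray 1000 g/ha (unless stated) in acetone/water 50:50 + 0.5% Tween 20; glasshouse 24/16 °C, 14 h light, 65% RH; watered twice daily; % damage read at 13 days, scored 1–5.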

[9] = test system: Echinochloa crus-galli (ECHCG); experiment: as above; details: post-emergence spray, 1000 g/ha unless otherwise stated, evaluated after 13 days
Procedure, shortened: as §1

Zea mays (ZEAMX) [10] = experiment: as above; details: post-emergence spray, 1000 g/ha unless otherwise stated, evaluated after 13 days
Procedure, shortened: as §2

Setaria faberi (SETFA) [11] = experiment: as above; details: post-emergence spray, 1000 g/ha unless otherwise stated, evaluated after 13 days
Procedure, shortened: as §2

[12] = test system: Ipomoea hederacea (IPOHE); experiment: Pre-emergence Test (glasshouse, percentage damage to the plant); details: 1000 g/ha unless otherwise stated, five-point scale

Structure (SMILES) | percentage damage to the plant, ECHCG [1] | percentage damage to the plant, ZEAMX (Zea mays (ZEAMX) [2]) | percentage damage to the plant, AMARE [3] | percentage damage to the plant, ABUTH [4] | percentage damage to the plant, SETFA (Setaria faberi (SETFA) [5]) | Post-emergence Test ABUTH, percentage damage to the plant (five-point scale) [6] | Post-emergence Test AMARE, percentage damage to the plant (five-point scale) [7] | Post-emergence Test IPOHE, percentage damage to the plant (five-point scale) [8] | Post-emergence Test ECHCG, percentage damage to the plant (five-point scale) [9] | Post-emergence Test ZEAMX, percentage damage to the plant (five-point scale) (Zea mays (ZEAMX) [10]) | Post-emergence Test SETFA, percentage damage to the plant (five-point scale) (Setaria faberi (SETFA) [11]) | percentage damage to the plant, IPOHE [12]
CCn1c(C)c(-c2cc(F)cc(F)c2)c(=O)c(C(=O)O)c1-c1ccc(Cl)c(Cl)c1 [Compound 79, 2-(3,4-dichlorophenyl)-5-(3,5-difluorophenyl)-1-ethyl-6-methyl-4-oxo-pyridine-3-carboxylic acid] | 1 (1=0-20%) | 2 (2=21-40%) | 3 (3=41-60%) | 3 (3=41-60%) | 5 (5=81-100%) | 2 (2=21-40%) | 1 (1=0-20%) | 2 (2=21-40%) | 1 (1=0-20%) | 1 (1=0-20%) | 2 (2=21-40%) | 2 (2=21-40%)
CCn1c(C)c(-c2cc(C)cc(C#N)c2)c(=O)c(C(=O)O)c1-c1ccc(Cl)c(Cl)c1 [Compound 80, 5-(3-cyano-5-methyl-phenyl)-2-(3,4-dichlorophenyl)-1-ethyl-6-methyl-4-oxo-pyridine-3-carboxylic acid] | 1 (1=0-20%) | 1 (1=0-20%) | 1 (1=0-20%) | 1 (1=0-20%) | 4 (4=61-80%) | 3 (3=41-60%) | 3 (3=41-60%) | 1 (1=0-20%) | 1 (1=0-20%) | 1 (1=0-20%) | 3 (3=41-60%) | 1 (1=0-20%)
CCn1c(C)c(-c2ccc(OC)c(C(F)(F)F)c2)c(=O)c(C(=O)O)c1-c1ccc(Cl)c(Cl)c1 [Compound 81, 2-(3,4-dichlorophenyl)-1-ethyl-5-[4-methoxy-3-(trifluoromethyl)phenyl]-6-methyl-4-oxo-pyridine-3-carboxylic acid] | 1 (1=0-20%) | 1 (1=0-20%) | 1 (1=0-20%) | 1 (1=0-20%) | 4 (4=61-80%) | 3 (3=41-60%) | 2 (2=21-40%) | 2 (2=21-40%) | 3 (3=41-60%) | 1 (1=0-20%) | 3 (3=41-60%) | 1 (1=0-20%)
CCn1c(C)c(-c2cc(Cl)cc(C(F)(F)F)c2)c(=O)c(C(=O)O)c1-c1ccc(Cl)c(Cl)c1 [Compound 82, 5-[3-chloro-5-(trifluoromethyl)phenyl]-2-(3,4-dichlorophenyl)-1-ethyl-6-methyl-4-oxo-pyridine-3-carboxylic acid] | 1 (1=0-20%) | 1 (1=0-20%) | 2 (2=21-40%) | 1 (1=0-20%) | 2 (2=21-40%) | 2 (2=21-40%) | 1 (1=0-20%) | 1 (1=0-20%) | 1 (1=0-20%) | 1 (1=0-20%) | 1 (1=0-20%) | 1 (1=0-20%)
CCn1c(C)c(-c2ccc(Cl)c(C(=O)NC3CC3)c2)c(=O)c(C(=O)O)c1-c1ccc(Cl)c(Cl)c1 [Compound 83, 5-[4-chloro-3-(cyclopropylcarbamoyl)phenyl]-2-(3,4-dichlorophenyl)-1-ethyl-6-methyl-4-oxo-pyridine-3-carboxylic acid] | 1 (1=0-20%) | 1 (1=0-20%) | 1 (1=0-20%) | 1 (1=0-20%) | 1 (1=0-20%) | 2 (2=21-40%) | 1 (1=0-20%) | 1 (1=0-20%) | 1 (1=0-20%) | 1 (1=0-20%) | 2 (2=21-40%) | 1 (1=0-20%)
CCn1c(C)c(-c2cc(F)c(OC)c(F)c2)c(=O)c(C(=O)O)c1-c1ccc(Cl)c(Cl)c1 [Compound 84, 2-(3,4-dichlorophenyl)-5-(3,5-difluoro-4-methoxy-phenyl)-1-ethyl-6-methyl-4-oxo-pyridine-3-carboxylic acid] | 1 (1=0-20%) | 1 (1=0-20%) | 1 (1=0-20%) | 3 (3=41-60%) | 4 (4=61-80%) | 3 (3=41-60%) | 2 (2=21-40%) | 3 (3=41-60%) | 1 (1=0-20%) | 1 (1=0-20%) | 3 (3=41-60%) | 3 (3=41-60%)
